Data from US20200046619A1, “Deodorizing Composition Comprising Zinc Neodecanoate” (GIVAUDAN SA, priority 2016, published 2020).

Columns and labels:
[1] = test system: subject's axilla malodour; assay: Sensory test comparing zinc neodecanoate and zinc ricinoleate: perceived malodour intensity of axillae rated by trained panel; type: in vivo, human; conditions: for perceived malodour intensity: 0-100 line scale, 24 hours after application of 1.0 g aerosol (4% zinc salt, 12% cyclomethicone, 84% propellant) to axilla, 10 male subjects
Method: Aerosols were prepared using the following two test formulations, respectively: • 4% zinc neodecanoate, 12% cyclomethicone, 84% propellant • 4% zinc ricinoleate, 12% cyclomethicone, 84% propellant (propellant=isobutane/propane mix)
5 days prior to testing, the male subjects substituted their normal body wash with an unperfumed product (Sanex 0% Bodywash) and were asked to only use a specific deodorant supplied (Lynx Attract for Him).
On the morning before the test, the male subjects were asked to shower using an unperfumed shower gel provided and not use any antiperspirant product or apply any other fragranced products.
Subjects reported to a panel suite in the morning in two groups for test product application.
The administrator applied 1.0 g of each product to each subject's axilla. Each subject wore both of the test formulations (one on each axilla region). The manner in which each test formulation was applied (left or right axilla) was randomised. Each of a subject's axilla was then coded with a random code number.
The subjects were asked not to shower until after the test had been completed the next day. The subjects were also provided with a list of rules, by which they had to abide for the duration of the test. The rules included no swimming and no gym activity between test formulation application and assessment.
The subjects' axillae were thereafter tested by sensory panellists. The members of the sensory panels had been selected on a basis of their olfactory sensory acuity and had thereafter received training for a period of 4-6 months. […]
The sensory panellists were asked to rate the perceived malodour intensity for each of the subject's axilla using a 0-100 line scale. The order of samples assessed was pre-determined using a balanced randomisation. The axillae were assessed in a sequential monadic way. […]
The subjects were separated into two groups to be assessed by the panellists and each group was assessed by 22 panellists.
The data was analysed using an analysis of variance and multiple comparison test with a confidence level of 95%.

[2] = Solubility test of zinc salts in model aerosol base formulation; type: physicochemical; conditions: 4% zinc salt, 12% cyclomethicone, 84% pentane; agitated several hours at room temperature, stood overnight
From the text: The solubility of several zinc salts was explored using the following model aerosol base formulation: • 4% zinc salt • 12% cyclomethicone • 84% pentane
(Pentane was used as a surrogate for isobutane/propane mix as it is easier to handle in a laboratory.)
Each salt and aerosol formulation was placed in a sealed glass vial that was agitated for several hours at room temperature. The resulting suspensions/solutions were allowed to stand overnight and any remaining solid matter present was noted.

[3] = White marks: visible solid residue on black cloth after aerosol spraying; type: physicochemical; conditions: approximately 3 g aerosol (4% zinc neodecanoate, 12% cyclomethicone, 84% propellant) dispensed; compared with zinc ricinoleate and aluminium chlorohydrate aerosols
Method: Aerosols were prepared using the following three test formulations, respectively: • 4% zinc neodecanoate, 12% cyclomethicone, 84% propellant • 4% zinc ricinoleate, 12% cyclomethicone, 84% propellant • 10% aluminium chlorohydrate, 0.8% disteardimonium hectorite, 12% cyclomethicone, 76.2% propellant (propellant=isobutane/propane mix)
Several card templates were prepared where a large X-shaped hole was present in each template. Each template was then placed over a black piece of cloth. The aerosols were shaken well, and then approximately 3 g of one of the three aerosols was dispensed over each template hole. Several minutes were allowed for any propellant to evaporate and the presence of any visible solid residues was noted.

zinc ricinoleate [reference compound]
perceived malodour intensity [1]: 14.0 (+/−0.8)

zinc neodecanoate
remaining solid matter present (solubility) [2]: without any solid present
visible solid residue on black cloth [3]: did not leave a powdered residue
perceived malodour intensity [1]: 12.1 (+/−0.8)
malodour intensity compared with underarms treated with zinc ricinoleate ([1]; analysis of variance and multiple comparison test, confidence level 95%, 24 hours after application): significantly lower malodour intensity
